The values that follow come from patent US10253015B2, “Pyridinyl quinolinone derivatives as mutant-isocitrate dehydrogenase inhibitors” (FORMA TM2, Inc., priority 2014, dated 2019).

Test [1] concerns the target IDH1-R132C recombinant protein (Homo sapiens (Human), UniProt O75874, R132C). Put plainly: IDH1-R132C enzymatic assay. The test is classed as biochemical. The procedure: (§1) Assays were performed in a 384-well black plate. […] After the plate was centrifuged briefly, an aliquot of 10 μL of 2 mM α-ketoglutarate and 20 μM NADPH solution prepared in assay buffer was then added to each well and the reaction was maintained at 25° C. for 45 minutes. An aliquot of 10 μL of diaphorase solution (0.15 U/mL diaphorase and 30 μM Resazurin in assay buffer) was added to each well. […] The IC50 of a given compound was calculated by fitting the dose response curve of inhibition of NADPH consumption at a given concentration with the four parameter logistic equation.

Test [2] concerns HCT116 isogenic IDH1-R132H mutant cells. Put plainly: Cellular 2-HG assay using HCT116 mutant IDH1 cells (R132H). The class given is cell-based. Particulars: Homo sapiens, HCT-116; cellular 2-HG inhibition, 24 hours, RapidFire mass spectrometry; read-out: HCT IDH1 R132H Range IC50. The procedure: (§2) HCT116 isogenic IDH1-R132H and IDH1-R132C mutant cells were cultured in growth media (McCoy's 5 A, 10% fetal bovine serum, 1× antibiotic-antimycotic solution and 0.3 mg/mL G418) in 5% CO2 in an incubator at 37° C. To prepare the assay, cells were trypsinized and resuspended in assay media (McCoy's 5 A with no L-glutamine, 10% fetal bovine serum, 1× antibiotic-antimycotic solution and 0.3 mg/mL G418). An aliquot of 10,000 cells/100 μL was transferred to each well of a clear 96-well tissue culture plate. The cells were incubated in 5% CO2 at 37° C. in an incubator overnight to allow for proper cell attachment. An aliquot of 50 μL of compound containing assay media were then added to each well and the assay plate was kept in 5% CO2 at 37° C. in an incubator for 24 hours. The media was then removed from each well and 150 μL of a methanol/water mixture (80/20 v/v) was added to each well. The plates were kept at −80° C. freezer overnight to allow for complete cell lysis. An aliquot of 125 μL of extracted supernatant was analyzed by RapidFire high-throughout-mass spectrometry (Agilent) to determine the cellular 2-HG level. The IC50 of a given compound was calculated by fitting the dose response curve of cellular 2-HG inhibition at a given concentration with the four parameter logistic equation

For test [3], the system named is HCT116 isogenic IDH1-R132C mutant cells. Put plainly: Cellular 2-HG assay using HCT116 mutant IDH1 cells (R132C). The class given is cell-based. As to conditions: Homo sapiens, HCT-116; cellular 2-HG inhibition, 24 hours, RapidFire mass spectrometry; read-out: HCT IDH1 R132C Range IC50. The procedure: as §2
Test [4] addresses IDH1-R132H recombinant protein (Homo sapiens (Human), UniProt O75874, R132H). Put plainly: IDH1-R132H enzymatic assay. The test is classed as biochemical. The procedure:
as §1

[5] abbreviates: inhibition of NADPH consumption, diaphorase/resazurin readout, read-out: Enzyme IDH1 R132C Range IC50.
Setting [6] is: inhibition of NADPH consumption, diaphorase/resazurin readout, read-out: Enzyme IDH1 R132H Range IC50.

Where two headings read alike, the source gives them in different places.

As a reminder, the IC50 is the concentration at which inhibition is half-maximal.

IDH1-R132C recombinant protein, sequence (O75874 whole entry R132C): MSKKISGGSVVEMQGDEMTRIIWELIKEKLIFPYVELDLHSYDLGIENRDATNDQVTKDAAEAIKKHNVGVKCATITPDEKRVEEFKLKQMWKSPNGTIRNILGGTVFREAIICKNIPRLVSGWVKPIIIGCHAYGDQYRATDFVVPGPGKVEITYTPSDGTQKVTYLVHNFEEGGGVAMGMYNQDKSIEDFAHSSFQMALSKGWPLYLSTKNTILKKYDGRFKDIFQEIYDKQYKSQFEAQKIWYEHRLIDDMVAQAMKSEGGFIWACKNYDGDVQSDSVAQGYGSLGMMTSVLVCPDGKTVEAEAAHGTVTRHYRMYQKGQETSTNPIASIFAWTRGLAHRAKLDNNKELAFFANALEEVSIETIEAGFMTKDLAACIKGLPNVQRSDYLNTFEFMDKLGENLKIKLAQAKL
IDH1-R132H recombinant protein, sequence (O75874 whole entry R132H): as the sequence (O75874 whole entry R132C) above, with C132H counted along it

Regarding `COc1cc2[nH]c(=O)c([C@H](C)Nc3cc(OC)c(C#N)cn3)cc2cc1Cl` [Compound I-25, 6-{[(1S)-1-(6-chloro-7-methoxy-2-oxo-1,2-dihydroquinolin-3-yl)ethyl]amino}-4-methoxypyridine-3-carbonitrile], the IC50 is less than 100 nM in test [1], 10 to 100 nM in test [2], 100 to 1000 nM in test [3] and less than 100 nM in test [4].
Take `COc1nc(N[C@@H](C)c2cc3cc(Cl)ccc3[nH]c2=O)ccc1C#N` [Compound I-6, 6-{[(1S)-1-(6-chloro-2-oxo-1,2-dihydroquinolin-3-yl)ethyl]amino}-2-methoxypyridine-3-carbonitrile]: the IC50 is 100 to 1000 nM in test [1] (setting [5]), 100 to 1000 nM in test [2], 10 to 100 nM in test [3] and less than 100 nM in test [4] (setting [6]).
For the compound `COc1cc2[nH]c(=O)c([C@H](C)Nc3ccc(C#N)c(C)n3)cc2cc1Cl` [Compound I-23, 6-{[(1S)-1-(6-chloro-7-methoxy-2-oxo-1,2-dihydroquinolin-3-yl)ethyl]amino}-2-methylpyridine-3-carbonitrile], the half-maximal inhibitory concentration (IC50) in test [3] lay in the range of 10 to 100 nM.
Turning to `Cc1cc(N[C@@H](C)c2cc3cc(Cl)ccc3[nH]c2=O)ncc1C#N` [Compound I-5, (S)-6-((1-(6-chloro-2-oxo-1,2-dihydroquinolin-3-yl)ethyl)amino)-4-methyl nicotinonitrile], the concentration for half-maximal inhibition (IC50) in test [1] (setting [5]) is 100 to 1000 nM; in test [2], 100 to 1000 nM; in test [3] it was 100 to 1000 nM; in test [4] (setting [6]), less than 100 nM.
With `Cc1nc(NCc2cc3cc(Cl)ccc3[nH]c2=O)ccc1C#N` [Compound I-58, 6-{[(6-chloro-2-oxo-1,2-dihydroquinolin-3-yl)methyl]amino}-2-methylpyridine-3-carbonitrile], the IC50 in test [1] (setting [5]) is 100 to 1000 nM; in test [2], 100 to 1000 nM; in test [3], more than 1000 nM; in test [4] (setting [6]) it was less than 100 nM.
Turning to `Cc1nc(NC(C)c2cc3cc(Cl)c(F)cc3[nH]c2=O)ccc1C#N` (stereo not shown) [Compound I-21, 6-{[1-(6-chloro-7-fluoro-2-oxo-1,2-dihydroquinolin-3-yl)ethyl]amino}-2-methylpyridine-3-carbonitrile], the IC50 in test [1] (setting [5]) was 100 to 1000 nM; in test [2], 100 to 1000 nM; in test [3] it was 100 to 1000 nM; in test [4] (setting [6]) it was less than 100 nM.
For `COc1cc2[nH]c(=O)c(C(C)Nc3ccc(C#N)c(C)n3)cc2cc1Cl` (stereo not shown) [Compound I-24, 6-{[1-(6-chloro-7-methoxy-2-oxo-1,2-dihydroquinolin-3-yl)ethyl]amino}-2-methylpyridine-3-carbonitrile], the IC50 in test [3] lay in the range of 100 to 1000 nM.
On to `Cc1nc(NC(C)c2cc3cc(Cl)c(OCc4ccccn4)cc3[nH]c2=O)ccc1C#N` (stereo not shown) [Compound I-29, 6-({1-[6-chloro-2-oxo-7-(pyridin-2-ylmethoxy)-1,2-dihydroquinolin-3-yl]ethyl}amino)-2-methylpyridine-3-carbonitrile], for which the values for the IC50 in test [2], in test [3] and in test [4] (setting [6]) were 10 to 100 nM, 10 to 100 nM and less than 100 nM, respectively.
For the compound `Cc1nc(N[C@@H](C)c2cc3cc(Cl)c(F)cc3[nH]c2=O)ccc1C#N` [Compound I-22, 6-{[(1S)-1-(6-chloro-7-fluoro-2-oxo-1,2-dihydroquinolin-3-yl)ethyl]amino}-2-methylpyridine-3-carbonitrile], the IC50 in test [1] (setting [5]) was 100 to 1000 nM; in test [2], less than 10 nM; in test [3], 100 to 1000 nM; in test [4] (setting [6]), less than 100 nM.
Regarding `Cc1c(-c2ccnc(N[C@@H](C)c3cc4cc(Cl)ccc4[nH]c3=O)c2)cnn1C` [Compound I-40, 6-chloro-3-[(1S)-1-{[4-(1,5-dimethyl-1H-pyrazol-4-yl)pyridin-2-yl]amino}ethyl]-1,2-dihydroquinolin-2-one], the IC50 in test [1] (setting [5]), in test [2], in test [3] and in test [4] (setting [6]) was 100 to 1000 nM throughout.
As for `COc1cc2[nH]c(=O)c([C@H](C)Nc3cc(C)c(C#N)cn3)cc2cc1Cl` [Compound I-27, 6-{[(1S)-1-(6-chloro-7-methoxy-2-oxo-1,2-dihydroquinolin-3-yl)ethyl]amino}-4-methylpyridine-3-carbonitrile], the IC50 was less than 100 nM in test [1] (setting [5]), 10 to 100 nM in test [2], 100 to 1000 nM in test [3] and less than 100 nM in test [4] (setting [6]).
Take `Cc1nc(NC(C)c2cc3cc(Cl)ccc3[nH]c2=O)ccc1C#N` (stereo not shown) [Compound I-9, 6-{[1-(6-chloro-2-oxo-1,2-dihydroquinolin-3-yl)ethyl]amino}-2-methylpyridine-3-carbonitrile]: the IC50 in test [1] (setting [5]) is 100 to 1000 nM; in test [2], 100 to 1000 nM; in test [3], more than 1000 nM; in test [4] (setting [6]) it was 100 to 1000 nM.
For the compound `Cc1nc(NC(C)c2cc3cc(Cl)c(OCC4CC(F)(F)C4)cc3[nH]c2=O)ccc1C#N` (stereo not shown) [Compound I-30, 6-[(1-{6-chloro-7-[(3,3-difluorocyclobutyl)methoxy]-2-oxo-1,2-dihydroquinolin-3-yl}ethyl)amino]-2-methylpyridine-3-carbonitrile], the 50% inhibitory concentration (IC50) in test [1] (setting [5]) was 100 to 1000 nM; in test [2], 10 to 100 nM; in test [3], 10 to 100 nM; in test [4] (setting [6]) it was less than 100 nM.
In the case of `Cc1nc(N[C@@H](C)c2cc3cc(Cl)c(OCc4ccccn4)cc3[nH]c2=O)ccc1C#N` [Compound I-28, 6-{[(1S)-1-[6-chloro-2-oxo-7-(pyridin-2-ylmethoxy)-1,2-dihydroquinolin-3-yl]ethyl]amino}-2-methylpyridine-3-carbonitrile], the IC50 in test [1] (setting [5]) was less than 100 nM; in test [2], 10 to 100 nM; in test [3] it was less than 10 nM; in test [4] (setting [6]), less than 100 nM.
`C[C@H](Nc1nccc(N2CCOC2=O)c1F)c1cc2cc(Cl)ccc2[nH]c1=O` [Compound I-14, 6-chloro-3-[(1S)-1-{[3-fluoro-4-(2-oxo-1,3-oxazolidin-3-yl)pyridin-2-yl]amino}ethyl]-1,2-dihydroquinolin-2-one]: the IC50 was 100 to 1000 nM in test [1] (setting [5]), 100 to 1000 nM in test [2], 100 to 1000 nM in test [3] and less than 100 nM in test [4] (setting [6]).
On to `COc1cc2[nH]c(=O)c([C@H](C)Nc3ccc(C#N)c(OC)n3)cc2cc1Cl` [Compound I-26, 6-{[(1S)-1-(6-chloro-7-methoxy-2-oxo-1,2-dihydroquinolin-3-yl)ethyl]amino}-2-methoxypyridine-3-carbonitrile], for which the IC50 in test [1] (setting [5]) was less than 100 nM; in test [2], less than 10 nM; in test [3] it was 10 to 100 nM; in test [4] (setting [6]) it was less than 100 nM.
Regarding `COc1cc(N[C@@H](C)c2cc3cc(Cl)ccc3[nH]c2=O)ncc1C#N` [Compound I-1, 6-{[(1S)-1-(6-chloro-2-oxo-1,2-dihydroquinolin-3-yl)ethyl]amino}-4-methoxypyridine-3-carbonitrile], in test [3], the IC50 was 100 to 1000 nM.
The same measure, in the same setting: with `C[C@H](Nc1cccc(N2CCOC2=O)n1)c1cc2cc(Cl)ccc2[nH]c1=O` [Compound I-11, 6-chloro-3-[(1S)-1-{[6-(2-oxo-1,3-oxazolidin-3-yl)pyridin-2-yl]amino}ethyl]-1,2-dihydroquinolin-2-one] the figure was 100 to 1000 nM.
In the case of `C[C@H](Nc1cc(-c2ccn[nH]2)ccn1)c1cc2cc(Cl)ccc2[nH]c1=O` [Compound I-41, 6-chloro-3-[(1S)-1-{[4-(1H-pyrazol-5-yl)pyridin-2-yl]amino}ethyl]-1,2-dihydroquinolin-2-one], the IC50 in test [1] (setting [5]) and in test [4] (setting [6]) was 1000 to 10000 nM in each case.
`CC(C)Cn1nccc1-c1ccnc(N[C@@H](C)c2cc3cc(Cl)ccc3[nH]c2=O)c1F` [Compound I-56, 6-chloro-3-[(1S)-1-({3-fluoro-4-[1-(2-methylpropyl)-1H-pyrazol-5-yl]pyridin-2-yl}amino)ethyl]-1,2-dihydroquinolin-2-one]: the IC50 in test [1] (setting [5]) and in test [4] (setting [6]) was more than 10000 nM each time.
Turning to `CC(C)n1nccc1-c1ccnc(N[C@@H](C)c2cc3cc(Cl)ccc3[nH]c2=O)c1` [Compound I-44, 6-chloro-3-[(1S)-1-({4-[1-(propan-2-yl)-1H-pyrazol-5-yl]pyridin-2-yl}amino)ethyl]-1,2-dihydroquinolin-2-one], the IC50 in test [1] (setting [5]) and in test [4] (setting [6]) was 1000 to 10000 nM in each case.
In the case of `C[C@H](Nc1cc(N2CCOC2=O)ccn1)c1cc2cc(Cl)ccc2[nH]c1=O` [Compound I-10, 6-chloro-3-[(1S)-1-{[4-(2-oxo-1,3-oxazolidin-3-yl)pyridin-2-yl]amino}ethyl]-1,2-dihydroquinolin-2-one], the figures for the half-inhibitory concentration (IC50) in test [1] (setting [5]) and in test [4] (setting [6]) were 1000 to 10000 nM and less than 100 nM, respectively.
